Laboratory results from patent US12546785B2, “IL-17F and IL-17A-specific capture agents, compositions, and methods of using and making” (Regeneron Pharmaceuticals, Inc., priority 2017, dated 2026).
Numbered stars: 1 amine (or outer) side, 2 acyl side, 3 side chain; on linkers, the order of the positions; unused ones are H or OH. Bridge positions count the residues as written; N and C are the ends. Square brackets hold non-standard residues; d marks the D form. Triazole bridges read from a SMILES are 1,4-linked. Peptide text beside a SMILES is read from it. * marks the point of attachment. ξ: configuration not given here. Biotinyl(3aR,4R,6aS) = O=C1N[C@@H]2[C@@H](CS[C@@H]2CCCCC(=O)*)N1; X1 = O=C(CCCCC1SC[C@H]2NC(=O)N[C@@H]12)NCCCOCCOCCOCCCN*; Biotin = O=C1N[C@H]2[C@H](CS[C@H]2CCCCC(=O)*)N1; dLys(N3) = [N-]=[N+]=NCCCC[C@@H](N)C(=O)O; Lys(N3) = [N-]=[N+]=NCCCC[C@H](N)C(=O)O; Ethylenediamine = C(CN[*:2])N[*:1]; PEG5 = NCCOCCOCCOCCOCCOCCC(=O)O; Thr(3ξ) = CC(O)[C@H](N)C(=O)O; ξY = NC(Cc1ccc(O)cc1)C(=O)O; AEEEA = NCCOCCOCCOCC(=O)O; ξR = N=C(N)NCCCC(N)C(=O)O; Pra = C#CC[C@H](N)C(=O)O; ξPra = C#CCC(N)C(=O)O; ξK = NCCCCC(N)C(=O)O; PEG1 = NCCOCCC(=O)O

Tests used:
[1] = molecular target: T1, His-tagged IL-17F Epitope1 (C48S) (Homo sapiens, UniProt Q96PD4); test: Assay to determine orientation of macrocycle binding to IL-17F Epitope1 (point ELISA with His-tagged epitopes); conditions: epitope 2 μM, unscrambled
T1 construct: made in house; host or cells: chemical peptide synthesis
Protocol: (§1) Assay to determine orientation of macrocycle binding to IL-17F Epitope1. A black 96-well NeutrAvidin Coated High Binding Capacity plate (15510, Pierce) was coated with 2 μM macrocyclic peptide ligand in TBS (pH 7.6) for 2 h at room temperature. Biotinylated monoclonal anti-IL17F (TA319597, Origene) was coated at 4 μg/mL in TBS as a control. The plate was aspirated and then washed with TBS (5×) and Wash Buffer (0.05% (v/v) Tween-20 in PBS, 1×). Chemically synthesized His-tagged IL-17F epitopes were prepared at 2 μM in Wash Buffer and incubated in the designated microwells for 90 min at room temperature. Wash Buffer without epitope was added as a control. Microwells were aspirated and subsequently washed with Wash Buffer (10×). To detect the bound IL-17F epitopes, Alkaline Phosphatase (AP)-conjugated Anti-6X His tag® antibody [HIS-1] (ab49746, Abcam) was prepared at 1:10,000 dilution and added to the microwells for 1 h at room temperature. The plate was aspirated and washed with Wash Buffer (11×). AttoPhos® AP Fluorescent Substrate System (S1000, Promega) was employed to develop the microwells. Using an excitation wavelength of 430 nm, fluorescent emission at 535 nm was recorded by Beckman Coulter DTX880 photometer. Data are shown after subtraction of the no-epitope background.
(§2) For this experiment, the IL-17F Epitope1 was re-synthesized with a His6 assay handle and C48S substitution instead of a click handle. Two additional His-tagged IL-17F epitopes were synthesized to contain strategic scrambling of the sequences either N-terminal or C-terminal to C48S (scrambled residues are shown in italics): • 1) His6-PEG3-[…] (SEQ ID NO:39); • 2) His6-PEG3-[…] (scrambled C-terminal to click handle; SEQ ID NO:40); • 3) His6-PEG3-[…] (scrambled N-terminal to click handle; SEQ ID NO:41).
(§3) In anticipation of forming a biligand with LF2 (SEQ ID NO: 28), it was important to gain insight on whether LF1 (SEQ ID NO:9) preferentially binds to the N- or C-terminus of Epitope1. Therefore, two His-tagged IL-17F epitopes were generated, scrambling the sequence either N-terminal or C-terminal to the location of the azide click handle. His6 assay handle and C48S substitution instead of a click handle. The scrambled amino acids are shown in italics. MALDI-TOF MS (m/z): calculated for C116H163N37O31 (M+H) 2571.23; found 2571.57.

[2] = system: His-tagged IL-17F Epitope1 (C48S); test: as above
Protocol: as §1, §2, §3

IL-17F protein [3] = molecular target: T2, IL-17F protein (Homo sapiens, UniProt Q96PD4); test: Fluorescence polarization titration in solution; format: binding
T2 construct: His tag
T2 sequence (Q96PD4 31-163): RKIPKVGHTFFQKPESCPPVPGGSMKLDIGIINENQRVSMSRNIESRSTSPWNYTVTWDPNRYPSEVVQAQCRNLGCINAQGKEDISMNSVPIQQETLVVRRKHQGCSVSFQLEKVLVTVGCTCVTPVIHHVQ
Protocol: The bonding affinities of the macrocycles were tested in solution by titrating the recombinant human IL-17F protein against fluorescein 5-isothiocyanate (5-FITC)-tagged macrocycles by fluorescence polarization. […] The structure of LA3 (SEQ ID NO:44), the lead macrocycle developed against IL-17A Epitope3, is shown below (X=PEG3-biotin). MALDI-TOF MS (m/z): calcd. for C62H98N22O13S (M+H) 1391.74; found 1392.36.

IL-17F protein [4] = molecular target: T2, IL-17F protein; test: IL-17F binding in a background of human serum, surface-immobilized ligand; conditions: up to 10% (v/v) serum
Excerpt: Binding to IL-17F in 25% (v/v) serum is also detectable.
Target binding in biologically complex samples was interrogated by contacting surface-immobilized macrocycles with IL-17F protein in a background of human serum.

[5] = molecular target: T3, recombinant human IL-17A protein (Homo sapiens, UniProt Q16552); test: ELISA affinity against IL-17A; format: binding
T3 construct: His tag
T3 sequence (Q16552 24-155): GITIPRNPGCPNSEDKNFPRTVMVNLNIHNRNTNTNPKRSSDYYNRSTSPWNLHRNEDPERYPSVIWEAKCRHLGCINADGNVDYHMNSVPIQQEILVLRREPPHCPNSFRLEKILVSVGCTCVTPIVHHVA
Protocol: The affinity of macrocycle LA3 (SEQ ID NO:44) against recombinant human IL-17A protein was determined by ELISA.

[6] = molecular target: Plasmodium falciparum Histidine Rich Protein-2 (Pf.HRP-2) (Plasmodium falciparum, UniProt P05227); test: biochemical; format: binding

CC(O)[C@@H]1NC(=O)[C@H](C)NC(=O)[C@H](CCCNC(=N)N)NC(=O)[C@H](CCCNC(=N)N)NC(=O)[C@@H](N)Cc2cn(nn2)CCCC[C@@H](C(=O)NCCCOCCOCCOCCCNC(=O)CCCCC2SC[C@H]3NC(=O)N[C@@H]23)NC(=O)[C@H](CO)NC1=O (stereo partly shown) [Cy(RRATSX1X2), Cy(RRATSX1X2)-PEG3-biotin] (H-[Pra]RRA[Thr(3ξ)]S[Lys(N3)]-X1; triazole 1-7)
ELISA signal for His-tagged IL-17F Epitope1 (C48S) [1]: positive ELISA signals | ELISA signal for epitope scrambled C-terminal to click handle ([2]; epitope 2 μM): positive ELISA signals | binding to epitope scrambled N-terminal to click handle ([2]; epitope 2 μM): Binding was destroyed | preferred binding region within IL-17F Epitope1 ([2]; scrambled N- or C-terminus peptides): preferentially bind to the N-terminal portion of Epitope1 | Kd (IL-17F protein [3]; 5-FITC-tagged macrocycles, in solution): 50 ± 15 nM | standard Gibbs free energy change (ΔG°=RTlnKD) of binding to IL-17F (IL-17F protein [3]; 25° C.): -9.9 kcal/mol | IL-17F binding efficiency in human serum (IL-17F protein [4]): no reduction in IL-17F binding efficiency

CC(C)C[C@H]1NC(=O)[C@@H](CCCNC(=N)N)NC(=O)[C@@H](Cc2ccccc2)NC(=O)[C@@H](Cc2c[nH]cn2)NC(=O)[C@@H](CCCNC(=N)N)NC(=O)[C@@H](NC(=O)COCCOCCOCCNC(=O)CCCC[C@@H]2SC[C@@H]3NC(=O)N[C@@H]32)Cc2cn(nn2)CCCC[C@@H](C(N)=O)NC1=O [LA3] ({Biotin-AEEEA}-[Pra][dR][dH][dF][dR][dL][Lys(N3)]-NH2; triazole 1-7)
EC50 [5]: 4.5 ± 0.4 nM

CC(C)C[C@@H]1NC(=O)[C@H](CC(=O)O)NC(=O)[C@H](C(C)C)NC(=O)[C@H](CC(N)=O)NC(=O)[C@H](Cc2c[nH]c3ccccc23)NC(=O)CNC(=O)[C@](C)(NC(=O)[C@@H](N)CCCNC(=N)N)CCCCCC/C=C/CCC[C@@](C)(C(=O)N[C@@H](CCCCNC(=O)CCCC[C@@H]2SC[C@@H]3NC(=O)N[C@@H]32)C(=O)N[C@@H](CNC(=O)Cn2nncc2C[C@H](N)C(=O)N2CCC[C@@H]2C(=O)NCC(=O)N[C@H](CC(C)C)C(=O)N[C@H](CC(C)C)C(=O)N[C@H]2Cc3cn(nn3)CCCC[C@@H](C(N)=O)NC(=O)[C@H](CCCNC(=N)N)NC(=O)[C@H](Cc3ccc(O)cc3)NC(=O)[C@H](Cc3ccc(O)cc3)NC(=O)[C@H](CCCCN)NC(=O)[C@H](Cc3ccc(O)cc3)NC2=O)C(N)=O)NC1=O [cy(YKYYR)-linker-cy(GWNVDL)]
improvement over the better of the two ligand components ([6]; Pf.HRP-2): 100 fold

N=C(N)NCCCC1NC(=O)[C@@H](Cc2ccc(O)cc2)NC(=O)[C@@H](Cc2ccc(O)cc2)NC(=O)C(CCCCN)NC(=O)C(Cc2ccc(O)cc2)NC(=O)C(N)Cc2cn(nn2)CCCC[C@H](C(=O)NCCOCCC(=O)NC2Cc3cn(nn3)CCCC[C@H](C(=O)NCCOCCOCCOCCOCCOCCC(=O)NCCNC(=O)CCCC[C@H]3SC[C@H]4NC(=O)N[C@H]43)NC(=O)C(CCCNC(=N)N)NC(=O)[C@@H](Cc3ccc(O)cc3)NC(=O)[C@@H](Cc3ccc(O)cc3)NC(=O)C(CCCCN)NC(=O)C(Cc3ccc(O)cc3)NC2=O)NC1=O (stereo partly drawn) [linked biligand] (H-[ξPra][ξY][ξK][dY][dY][ξR][dLys(N3)][PEG1][ξPra][ξY][ξK][dY][dY][ξR][dLys(N3)][PEG5]-{Ethylenediamine-Biotinyl(3aR,4R,6aS)}; triazole 1-7, 9-15)
EC50 [6]: 20.8 ± 1.3 nM
